Columns and labels:
[1] = target: CaV3.1 (Homo sapiens, UniProt O43497); assay: In vitro electrophysiology studies; assay type: cell-based
[2] = target: CaV3.3 (Homo sapiens, UniProt Q9P0X4); assay: In vitro electrophysiology studies; assay type: cell-based
[3] = tested on: animal model of ET; assay: Animal model of ET; conditions: in vivo

Chain of CaV3.3 (Q9P0X4 whole entry): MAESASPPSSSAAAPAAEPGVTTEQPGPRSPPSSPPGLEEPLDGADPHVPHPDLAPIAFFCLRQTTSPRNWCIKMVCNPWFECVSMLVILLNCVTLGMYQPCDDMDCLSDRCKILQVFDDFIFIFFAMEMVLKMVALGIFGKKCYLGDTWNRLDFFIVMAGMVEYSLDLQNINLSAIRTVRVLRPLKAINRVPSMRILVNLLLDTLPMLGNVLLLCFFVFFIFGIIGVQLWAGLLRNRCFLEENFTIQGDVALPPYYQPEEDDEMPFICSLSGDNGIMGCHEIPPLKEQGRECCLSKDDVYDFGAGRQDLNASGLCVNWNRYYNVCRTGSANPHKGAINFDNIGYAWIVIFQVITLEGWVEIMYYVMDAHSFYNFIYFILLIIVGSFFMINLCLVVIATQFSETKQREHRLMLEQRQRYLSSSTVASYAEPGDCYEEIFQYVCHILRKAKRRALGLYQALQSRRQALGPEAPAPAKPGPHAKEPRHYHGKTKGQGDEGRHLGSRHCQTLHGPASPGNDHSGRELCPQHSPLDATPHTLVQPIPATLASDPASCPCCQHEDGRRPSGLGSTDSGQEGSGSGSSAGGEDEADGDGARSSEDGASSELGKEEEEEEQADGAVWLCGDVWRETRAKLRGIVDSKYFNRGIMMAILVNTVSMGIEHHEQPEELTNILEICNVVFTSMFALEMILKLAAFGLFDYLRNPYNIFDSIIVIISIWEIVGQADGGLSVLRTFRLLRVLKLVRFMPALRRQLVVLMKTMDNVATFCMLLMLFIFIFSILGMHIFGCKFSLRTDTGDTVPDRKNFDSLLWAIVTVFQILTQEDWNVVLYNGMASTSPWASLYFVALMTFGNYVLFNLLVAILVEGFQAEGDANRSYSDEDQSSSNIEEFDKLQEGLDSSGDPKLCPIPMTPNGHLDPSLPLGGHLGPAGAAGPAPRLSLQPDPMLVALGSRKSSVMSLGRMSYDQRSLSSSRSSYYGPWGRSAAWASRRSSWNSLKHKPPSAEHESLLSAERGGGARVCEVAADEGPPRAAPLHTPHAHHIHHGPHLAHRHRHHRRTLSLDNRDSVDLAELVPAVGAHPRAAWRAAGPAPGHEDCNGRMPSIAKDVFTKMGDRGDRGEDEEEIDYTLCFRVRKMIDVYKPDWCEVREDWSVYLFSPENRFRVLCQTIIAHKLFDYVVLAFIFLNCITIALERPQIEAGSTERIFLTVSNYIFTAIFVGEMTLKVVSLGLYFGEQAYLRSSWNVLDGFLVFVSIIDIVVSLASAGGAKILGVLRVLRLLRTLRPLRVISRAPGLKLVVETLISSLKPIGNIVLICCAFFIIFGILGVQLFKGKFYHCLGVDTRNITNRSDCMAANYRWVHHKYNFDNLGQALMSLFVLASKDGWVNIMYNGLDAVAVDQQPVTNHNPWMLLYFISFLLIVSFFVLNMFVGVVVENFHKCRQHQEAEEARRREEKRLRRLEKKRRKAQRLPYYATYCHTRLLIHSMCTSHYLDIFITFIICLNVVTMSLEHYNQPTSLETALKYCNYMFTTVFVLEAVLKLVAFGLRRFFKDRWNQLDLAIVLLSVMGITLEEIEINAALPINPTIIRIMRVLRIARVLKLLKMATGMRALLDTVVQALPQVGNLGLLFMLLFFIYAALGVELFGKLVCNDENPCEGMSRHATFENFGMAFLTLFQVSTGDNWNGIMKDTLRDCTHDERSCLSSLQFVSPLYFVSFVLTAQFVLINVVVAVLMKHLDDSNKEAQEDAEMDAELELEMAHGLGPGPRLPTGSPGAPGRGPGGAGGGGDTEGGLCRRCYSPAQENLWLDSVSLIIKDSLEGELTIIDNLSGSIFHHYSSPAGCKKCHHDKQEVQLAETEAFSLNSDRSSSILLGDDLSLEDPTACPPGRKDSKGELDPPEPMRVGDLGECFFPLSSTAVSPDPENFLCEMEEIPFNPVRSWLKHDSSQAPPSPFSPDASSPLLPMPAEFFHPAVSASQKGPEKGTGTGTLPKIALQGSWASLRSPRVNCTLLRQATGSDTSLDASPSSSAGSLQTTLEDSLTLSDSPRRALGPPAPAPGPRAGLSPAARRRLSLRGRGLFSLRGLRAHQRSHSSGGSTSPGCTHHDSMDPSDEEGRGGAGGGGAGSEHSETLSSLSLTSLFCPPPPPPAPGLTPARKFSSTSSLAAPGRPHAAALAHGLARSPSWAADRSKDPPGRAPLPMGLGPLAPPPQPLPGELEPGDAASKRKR
Chain of CaV3.1 (O43497 whole entry): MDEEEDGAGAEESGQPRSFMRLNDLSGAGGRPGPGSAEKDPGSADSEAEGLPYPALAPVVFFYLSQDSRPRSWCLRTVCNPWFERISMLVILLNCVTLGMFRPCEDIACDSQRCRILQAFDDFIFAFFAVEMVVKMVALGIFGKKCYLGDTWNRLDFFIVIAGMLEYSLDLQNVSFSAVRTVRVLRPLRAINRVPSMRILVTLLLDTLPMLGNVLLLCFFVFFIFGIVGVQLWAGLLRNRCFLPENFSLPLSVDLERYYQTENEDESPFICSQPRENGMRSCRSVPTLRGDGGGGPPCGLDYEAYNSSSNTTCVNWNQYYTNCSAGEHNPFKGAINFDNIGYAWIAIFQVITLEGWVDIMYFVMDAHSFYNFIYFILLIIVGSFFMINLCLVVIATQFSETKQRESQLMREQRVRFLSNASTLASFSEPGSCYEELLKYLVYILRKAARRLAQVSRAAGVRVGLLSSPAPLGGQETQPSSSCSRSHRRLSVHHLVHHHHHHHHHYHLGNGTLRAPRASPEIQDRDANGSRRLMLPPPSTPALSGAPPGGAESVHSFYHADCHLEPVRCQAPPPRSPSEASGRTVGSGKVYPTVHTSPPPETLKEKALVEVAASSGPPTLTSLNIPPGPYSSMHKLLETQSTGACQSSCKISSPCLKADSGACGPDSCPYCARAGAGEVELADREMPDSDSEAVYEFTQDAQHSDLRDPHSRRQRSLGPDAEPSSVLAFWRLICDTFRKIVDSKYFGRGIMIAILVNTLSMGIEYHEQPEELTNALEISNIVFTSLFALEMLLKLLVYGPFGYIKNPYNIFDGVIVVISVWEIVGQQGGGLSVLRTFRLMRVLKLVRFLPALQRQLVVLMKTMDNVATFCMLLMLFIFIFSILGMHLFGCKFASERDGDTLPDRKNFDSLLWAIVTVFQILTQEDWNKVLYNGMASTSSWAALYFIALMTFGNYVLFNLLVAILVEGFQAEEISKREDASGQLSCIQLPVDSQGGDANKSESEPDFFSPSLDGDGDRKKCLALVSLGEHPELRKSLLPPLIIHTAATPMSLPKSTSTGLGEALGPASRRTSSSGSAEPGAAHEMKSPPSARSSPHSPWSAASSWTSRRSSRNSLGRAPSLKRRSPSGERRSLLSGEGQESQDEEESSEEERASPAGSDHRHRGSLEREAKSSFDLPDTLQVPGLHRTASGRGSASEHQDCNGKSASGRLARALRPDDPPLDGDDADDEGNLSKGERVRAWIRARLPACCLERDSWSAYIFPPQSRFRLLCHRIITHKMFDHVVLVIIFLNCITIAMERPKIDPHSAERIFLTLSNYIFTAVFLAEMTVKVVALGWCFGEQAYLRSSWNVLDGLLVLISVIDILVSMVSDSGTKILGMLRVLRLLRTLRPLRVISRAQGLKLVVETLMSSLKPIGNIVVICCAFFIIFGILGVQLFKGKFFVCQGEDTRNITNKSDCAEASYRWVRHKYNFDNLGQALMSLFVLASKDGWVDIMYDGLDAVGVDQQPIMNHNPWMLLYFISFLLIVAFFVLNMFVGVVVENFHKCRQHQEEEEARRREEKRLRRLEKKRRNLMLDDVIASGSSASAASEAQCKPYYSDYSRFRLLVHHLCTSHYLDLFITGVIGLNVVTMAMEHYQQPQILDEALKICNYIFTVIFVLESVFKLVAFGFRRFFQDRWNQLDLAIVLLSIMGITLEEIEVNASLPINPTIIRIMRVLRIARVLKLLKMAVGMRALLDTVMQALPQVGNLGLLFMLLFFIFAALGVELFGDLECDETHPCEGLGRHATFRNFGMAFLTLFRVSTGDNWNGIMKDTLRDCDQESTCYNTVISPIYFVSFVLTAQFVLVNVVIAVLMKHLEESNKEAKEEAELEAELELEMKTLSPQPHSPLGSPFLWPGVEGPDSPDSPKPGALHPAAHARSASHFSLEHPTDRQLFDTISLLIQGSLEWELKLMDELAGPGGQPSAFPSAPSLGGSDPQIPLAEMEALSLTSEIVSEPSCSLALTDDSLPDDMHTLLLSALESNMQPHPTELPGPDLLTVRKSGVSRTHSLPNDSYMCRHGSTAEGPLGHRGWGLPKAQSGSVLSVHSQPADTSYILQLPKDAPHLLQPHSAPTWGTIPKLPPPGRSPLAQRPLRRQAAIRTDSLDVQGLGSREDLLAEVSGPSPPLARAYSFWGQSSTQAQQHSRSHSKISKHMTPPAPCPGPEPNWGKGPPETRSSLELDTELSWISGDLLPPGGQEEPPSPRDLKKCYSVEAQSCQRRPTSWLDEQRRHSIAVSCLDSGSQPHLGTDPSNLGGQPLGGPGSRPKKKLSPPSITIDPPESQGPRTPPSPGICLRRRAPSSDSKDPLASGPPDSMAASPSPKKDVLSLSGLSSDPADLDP

## CC(C)(C)NC(=O)CN1CCC(CNC(=O)c2cc(F)cc(Cl)c2)CC1.Cl [PRAX-944, N-((1-(2-(tert-butylamino)-2-oxoethyl)piperidin-4-yl)methyl)-3-chloro-5-fluorobenzamide hydrochloride]
[1]
  Potency for T-type Ca2+ channels: nanomolar
[2]
  Potency for T-type Ca2+ channels: nanomolar
[3]
  Activity in an animal model of ET: robust activity
